Reference: patent publication US20250099434A1, “METHODS OF TREATING AMYLOID RELATED BRAIN DISORDERS USING NOVEL COMPOUNDS AND ANTIBODIES” (T3D Therapeutics, Inc., priority 2022, published 2025)

Key:
[1] = system: patients with mild-to-moderate Alzheimer's disease (AD); test: BOLD fMRI (task-free fMRI) clinical study, baseline vs end of treatment; assay type: in vivo, human
Method: The majority were non-Hispanic and of white origin.
T3D Therapeutics completed an exploratory analysis of the Phase 2A non-placebo-controlled feasibility study to assess the therapeutic effects of T3D959 in patients with mild-to-moderate Alzheimer's disease (AD) via task-free functional magnetic resonance imaging (tf-fMRI). A total of 34 subjects participated and were split into 4 groups that took different amounts of T3D959 over the course of the study: 3 mg, 10 mg, 30 mg, and 90 mg. A baseline tf-fMRI scan was obtained prior to treatment and another two weeks after. Sixteen tf-fMRI metrics were calculated at each time point and summarized for each patient group to assess the therapeutic effect of T3D959.
The T3D clinical trial investigated the following metrics: • 1. Goodness of Fit of the subject's default mode network regions compared to those of an elderly control group. • 2. The correlation strength between the hippocampus and precuneus. • 3. The global efficiency calculated from 11 pre-defined default mode network regions. • 4. The global efficiency calculated from 90 pre-defined cerebral regions based on the automated anatomical labeling atlas. • 5. The amplitude of low frequency fluctuations (ALFF) and […] of low frequency fluctuations (fALFF) from the right posterior cingulate cortex (PCC) and precuneus (PreC) in the low frequency oscillations (LFO) range (0.01-0.08 Hz). • 6. The ALFF and fALFF from the left PCC and PreC in the LFO range. • 7. The regional homogeneity (ReHo) in the right PCC and PreC. • 8. The ReHo in the left PCC and PreC. • 9. […] The ALFF and fALFF from the left IPL in the LFO range. • 11. The ReHo in the right IPL • 12. The ReHo in the left IPL.

[2] = target: T1, human PPARα (Homo sapiens, UniProt Q07869); test: Human PPAR activation, transient transfection in CV-1 cells (alpha subtype); assay type: cell-based
T1 construct: expressed in transfected cells; host or cells: CV-1 cells
T1 sequence (Q07869 1-468): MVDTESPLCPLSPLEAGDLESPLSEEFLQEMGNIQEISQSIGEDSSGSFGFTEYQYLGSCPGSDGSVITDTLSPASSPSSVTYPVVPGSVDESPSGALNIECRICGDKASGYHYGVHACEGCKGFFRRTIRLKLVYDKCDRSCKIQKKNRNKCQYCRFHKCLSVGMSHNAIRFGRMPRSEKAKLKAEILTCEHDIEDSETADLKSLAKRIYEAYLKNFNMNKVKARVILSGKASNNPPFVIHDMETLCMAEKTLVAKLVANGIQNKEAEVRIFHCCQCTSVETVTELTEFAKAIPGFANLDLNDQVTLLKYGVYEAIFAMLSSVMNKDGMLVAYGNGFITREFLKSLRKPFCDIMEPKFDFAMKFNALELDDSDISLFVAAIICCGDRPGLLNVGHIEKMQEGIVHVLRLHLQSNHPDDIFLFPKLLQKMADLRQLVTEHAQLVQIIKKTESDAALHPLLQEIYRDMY
Source text: PPAR receptor agonist activity may be determined by conventional screening methods known to the skilled in the art. For example, methods described in U.S. Patent Application Publication No. 2007/0054907, 2008/0262047 and U.S. Pat. No. 7,314,879, which are incorporated by reference in their entireties.
The table summarize the results of studies performed in transfected CV-1 cells with three different lots of Compound of Example 11. […].

What does the source list for `CCc1oc(-c2ccc(OC)cc2)nc1CCOc1ccc2c(c1)CC[C@H]2CC(=O)[O-].[Na+]` [Example 11, Sodium (S)-2-(5-(2-(5-ethyl-2-(4-methoxyphenyl)oxazol-4-yl)ethoxy)-2,3-dihydro-1H-inden-1-yl)acetate]?
ALFF-IIPL, Change from Baseline EOT, Mean ([1]; 3 mg): −0.0635; ALFF-IIPL, Change from Baseline EOT, Median ([1]; 3 mg): −0.0393; ALFF-rIPL, Change from Baseline EOT, Mean ([1]; 3 mg): −0.0493; ALFF-rIPL, Change from Baseline EOT, Median ([1]; 3 mg): −0.0587; ReHo-IIPL, Change from Baseline EOT, Mean ([1]; 3 mg): −0.0694; ReHo-IIPL, Change from Baseline EOT, Median ([1]; 3 mg): −0.0822; ReHo-IPPC-PreC, Change from Baseline EOT, Mean ([1]; 3 mg): −0.0665; ReHo-IPPC-PreC, Change from Baseline EOT, Median ([1]; 3 mg): −0.0428; ReHo-rIPL, Change from Baseline EOT, Mean ([1]; 3 mg): −0.0694; ReHo-rIPL, Change from Baseline EOT, Median ([1]; 3 mg): −0.0822; ReHo-rPPC-Prec, Change from Baseline EOT, Mean ([1]; 3 mg): −0.0390; ReHo-rPPC-Prec, Change from Baseline EOT, Median ([1]; 3 mg): −0.0081; fALFF-IIPL, Change from Baseline EOT, Mean ([1]; 3 mg): −0.0296; fALFF-IIPL, Change from Baseline EOT, Median ([1]; 3 mg): −0.0311; fALFF-IPPC-PreC, Change from Baseline EOT, Mean ([1]; 3 mg): 0.0121; fALFF-IPPC-PreC, Change from Baseline EOT, Median ([1]; 3 mg): 0.0019; fALFF-rIPL, Change from Baseline EOT, Mean ([1]; 3 mg): −0.0342; fALFF-rIPL, Change from Baseline EOT, Median ([1]; 3 mg): −0.0327; fALFF-rPPC-PreC, Change from Baseline EOT, Mean ([1]; 3 mg): −0.0080; fALFF-rPPC-PreC, Change from Baseline EOT, Median ([1]; 3 mg): −0.0229; ALFF-IIPL, Change from Baseline EOT, Mean ([1]; 10 mg): 0.0104; ALFF-IIPL, Change from Baseline EOT, Median ([1]; 10 mg): 0.0273; ALFF-rIPL, Change from Baseline EOT, Mean ([1]; 10 mg): −0.0276; ALFF-rIPL, Change from Baseline EOT, Median ([1]; 10 mg): −0.0278; ReHo-IIPL, Change from Baseline EOT, Mean ([1]; 10 mg): 0.0147; ReHo-IIPL, Change from Baseline EOT, Median ([1]; 10 mg): −0.0201; ReHo-IPPC-PreC, Change from Baseline EOT, Mean ([1]; 10 mg): 0.0237; ReHo-IPPC-PreC, Change from Baseline EOT, Median ([1]; 10 mg): 0.0523; ReHo-rIPL, Change from Baseline EOT, Mean ([1]; 10 mg): 0.0147; ReHo-rIPL, Change from Baseline EOT, Median ([1]; 10 mg): −0.0201; ReHo-rPPC-Prec, Change from Baseline EOT, Mean ([1]; 10 mg): −0.0663; ReHo-rPPC-Prec, Change from Baseline EOT, Median ([1]; 10 mg): 0.0153; fALFF-IIPL, Change from Baseline EOT, Mean ([1]; 10 mg): 0.0164; fALFF-IIPL, Change from Baseline EOT, Median ([1]; 10 mg): 0.0097; fALFF-IPPC-PreC, Change from Baseline EOT, Mean ([1]; 10 mg): 0.0068; fALFF-IPPC-PreC, Change from Baseline EOT, Median ([1]; 10 mg): −0.0068; fALFF-rIPL, Change from Baseline EOT, Mean ([1]; 10 mg): 0.0061; fALFF-rIPL, Change from Baseline EOT, Median ([1]; 10 mg): 0.0096; fALFF-rPPC-PreC, Change from Baseline EOT, Mean ([1]; 10 mg): 0.0084; fALFF-rPPC-PreC, Change from Baseline EOT, Median ([1]; 10 mg): −0.0028; ALFF-IIPL, Change from Baseline EOT, Mean ([1]; 30 mg): −0.0102; ALFF-IIPL, Change from Baseline EOT, Median ([1]; 30 mg): −0.0031; ALFF-rIPL, Change from Baseline EOT, Mean ([1]; 30 mg): 0.0346; ALFF-rIPL, Change from Baseline EOT, Median ([1]; 30 mg): 0.0332; ReHo-IIPL, Change from Baseline EOT, Mean ([1]; 30 mg): −0.0249; ReHo-IIPL, Change from Baseline EOT, Median ([1]; 30 mg): −0.0135; ReHo-IPPC-PreC, Change from Baseline EOT, Mean ([1]; 30 mg): −0.0369; ReHo-IPPC-PreC, Change from Baseline EOT, Median ([1]; 30 mg): −0.0398; ReHo-rIPL, Change from Baseline EOT, Mean ([1]; 30 mg): −0.0249; ReHo-rIPL, Change from Baseline EOT, Median ([1]; 30 mg): −0.0135; ReHo-rPPC-Prec, Change from Baseline EOT, Mean ([1]; 30 mg): −0.0895; ReHo-rPPC-Prec, Change from Baseline EOT, Median ([1]; 30 mg): −0.1176; fALFF-IIPL, Change from Baseline EOT, Mean ([1]; 30 mg): −0.0107; fALFF-IIPL, Change from Baseline EOT, Median ([1]; 30 mg): −0.0034; fALFF-IPPC-PreC, Change from Baseline EOT, Mean ([1]; 30 mg): −0.0132; fALFF-IPPC-PreC, Change from Baseline EOT, Median ([1]; 30 mg): −0.0141; fALFF-rIPL, Change from Baseline EOT, Mean ([1]; 30 mg): 0.0023; fALFF-rIPL, Change from Baseline EOT, Median ([1]; 30 mg): 0.0001; fALFF-rPPC-PreC, Change from Baseline EOT, Mean ([1]; 30 mg): −0.0007; fALFF-rPPC-PreC, Change from Baseline EOT, Median ([1]; 30 mg): −0.0133; ALFF-IIPL, Change from Baseline EOT, Mean ([1]; 90 mg): −0.0401; ALFF-IIPL, Change from Baseline EOT, Median ([1]; 90 mg): −0.0560; ALFF-rIPL, Change from Baseline EOT, Mean ([1]; 90 mg): −0.1089; ALFF-rIPL, Change from Baseline EOT, Median ([1]; 90 mg): −0.0671; ReHo-IIPL, Change from Baseline EOT, Mean ([1]; 90 mg): −0.0062; ReHo-IIPL, Change from Baseline EOT, Median ([1]; 90 mg): −0.0121; ReHo-IPPC-PreC, Change from Baseline EOT, Mean ([1]; 90 mg): 0.0194; ReHo-IPPC-PreC, Change from Baseline EOT, Median ([1]; 90 mg): 0.0566; ReHo-rIPL, Change from Baseline EOT, Mean ([1]; 90 mg): −0.0062; ReHo-rIPL, Change from Baseline EOT, Median ([1]; 90 mg): −0.0121; ReHo-rPPC-Prec, Change from Baseline EOT, Mean ([1]; 90 mg): −0.0041; ReHo-rPPC-Prec, Change from Baseline EOT, Median ([1]; 90 mg): 0.0177; fALFF-IIPL, Change from Baseline EOT, Mean ([1]; 90 mg): −0.0350; fALFF-IIPL, Change from Baseline EOT, Median ([1]; 90 mg): −0.0211; fALFF-IPPC-PreC, Change from Baseline EOT, Mean ([1]; 90 mg): −0.0167; fALFF-IPPC-PreC, Change from Baseline EOT, Median ([1]; 90 mg): −0.0166; fALFF-rIPL, Change from Baseline EOT, Mean ([1]; 90 mg): −0.0395; fALFF-rIPL, Change from Baseline EOT, Median ([1]; 90 mg): −0.0313; fALFF-rPPC-PreC, Change from Baseline EOT, Mean ([1]; 90 mg): −0.0118; fALFF-rPPC-PreC, Change from Baseline EOT, Median ([1]; 90 mg): 0.0039; Peak effect PPARα [2]: 1.87; maximal response, human alpha subtype [2]: significantly reduced maximal response
